Results on 22 compounds are retold here after patent US12599617B2, “Methods of treating head and neck cancers with hemp extract” (Ecofibre USA Inc., priority 2021, dated 2026).

The subject of data set [1] is human head and neck cancer organoids. The experiment in a line: Head and neck cancer organoid viability, cannabis extracts and paclitaxel alone or combined.
The subject of data set [2] is patient derived organoids. Briefly: Response / % cell death of patient derived organoids. In kind it is cell-based, human. The following applies: for % Cell Death: patient derived organoids treated with the drug. The text has this: A few of the above materials, as well as additional drugs were tried for response to patient derived organoids in Table 4, below, which details the % of cell death of the patient derived organoids, when treated with the relevant drug product.

The conditions of data set [3]: cited from earlier work.
In data set [4] the target is P-glycoprotein (Homo sapiens, UniProt P08183). As to conditions: in vitro study; cited from earlier work.
Data set [5] has as its target CYP2C19 enzymes (Homo sapiens, UniProt P33261). As to conditions: in vitro; cited from earlier work.
Data set [6] relates to grade 2 endometrial cancer organoids. The experiment in a line: Grade 2 endometrial cancer organoid viability, carboplatin alone or with cannabis extract. The following applies: carboplatin alone, 50 and 100 μm/mL. In kind it is cell-based, human.
Data set [7] has as its system patient derived endometrial cancer cells. The experiment in a line: Patient-derived xenograft (PDX) mouse tumor volume. In kind it is in vivo, mice. As to conditions: paclitaxel only, 10 mg/kg, 21 days. The text has this:
All treatment group mice were kept alive for up to 10 weeks after drug injection or until the tumor volume grows bigger than 2500 mm^3.

CYP2C19 enzymes, sequence (P33261 whole entry): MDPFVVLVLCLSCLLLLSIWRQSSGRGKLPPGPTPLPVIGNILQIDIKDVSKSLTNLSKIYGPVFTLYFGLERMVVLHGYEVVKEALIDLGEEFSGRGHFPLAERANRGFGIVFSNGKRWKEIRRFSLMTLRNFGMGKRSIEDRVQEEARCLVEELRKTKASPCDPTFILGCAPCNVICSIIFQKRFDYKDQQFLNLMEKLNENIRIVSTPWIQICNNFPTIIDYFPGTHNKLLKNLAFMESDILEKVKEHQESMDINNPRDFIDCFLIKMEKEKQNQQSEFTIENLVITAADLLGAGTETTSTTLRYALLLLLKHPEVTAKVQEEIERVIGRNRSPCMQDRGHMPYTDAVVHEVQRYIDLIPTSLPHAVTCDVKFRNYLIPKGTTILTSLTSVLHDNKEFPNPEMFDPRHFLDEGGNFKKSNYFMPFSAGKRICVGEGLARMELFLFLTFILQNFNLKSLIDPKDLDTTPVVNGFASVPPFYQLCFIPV
P-glycoprotein, sequence (P08183 whole entry): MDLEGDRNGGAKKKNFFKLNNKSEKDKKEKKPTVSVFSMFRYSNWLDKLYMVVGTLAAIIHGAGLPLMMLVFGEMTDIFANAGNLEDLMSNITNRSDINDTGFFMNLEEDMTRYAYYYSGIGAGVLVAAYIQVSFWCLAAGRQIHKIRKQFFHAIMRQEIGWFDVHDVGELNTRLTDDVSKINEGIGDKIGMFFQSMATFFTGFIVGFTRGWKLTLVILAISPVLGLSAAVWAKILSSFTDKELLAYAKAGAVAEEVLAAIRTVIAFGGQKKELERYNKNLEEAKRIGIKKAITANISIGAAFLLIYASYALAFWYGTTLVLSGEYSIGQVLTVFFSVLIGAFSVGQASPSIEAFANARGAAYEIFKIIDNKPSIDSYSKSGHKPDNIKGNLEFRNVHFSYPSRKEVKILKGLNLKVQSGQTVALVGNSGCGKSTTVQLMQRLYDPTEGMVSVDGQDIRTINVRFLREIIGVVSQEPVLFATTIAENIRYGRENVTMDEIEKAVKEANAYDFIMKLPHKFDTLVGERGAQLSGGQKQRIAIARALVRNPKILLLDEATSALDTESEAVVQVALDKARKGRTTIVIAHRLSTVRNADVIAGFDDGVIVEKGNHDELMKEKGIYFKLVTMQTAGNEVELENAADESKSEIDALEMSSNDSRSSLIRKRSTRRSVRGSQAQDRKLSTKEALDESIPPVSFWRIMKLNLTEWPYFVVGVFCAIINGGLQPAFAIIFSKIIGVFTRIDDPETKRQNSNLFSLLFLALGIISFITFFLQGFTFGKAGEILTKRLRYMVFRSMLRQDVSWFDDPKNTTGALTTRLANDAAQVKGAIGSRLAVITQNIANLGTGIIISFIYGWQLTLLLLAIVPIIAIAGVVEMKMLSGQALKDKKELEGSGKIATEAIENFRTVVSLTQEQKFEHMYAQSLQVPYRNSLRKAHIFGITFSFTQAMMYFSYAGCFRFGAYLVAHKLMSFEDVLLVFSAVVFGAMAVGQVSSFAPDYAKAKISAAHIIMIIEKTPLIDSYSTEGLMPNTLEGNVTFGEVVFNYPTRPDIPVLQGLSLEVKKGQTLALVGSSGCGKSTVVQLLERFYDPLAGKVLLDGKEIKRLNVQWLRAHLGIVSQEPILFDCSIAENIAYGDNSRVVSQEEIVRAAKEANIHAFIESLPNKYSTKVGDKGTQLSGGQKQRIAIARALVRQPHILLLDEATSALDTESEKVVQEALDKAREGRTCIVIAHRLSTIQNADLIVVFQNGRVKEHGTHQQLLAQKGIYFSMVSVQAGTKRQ

Turning to `C=C(C)[C@@H]1CCC(C)=C[C@H]1c1c(O)cc(CCCCC)c(C(=O)O)c1O` [CBDA, cannabidiolic acid], the “percent viability of head and neck cancer organoids” value in data set [1] (at least 15 μg/mL CBDA) is “below 10%”.

On to Bleomycin, for which the “% Cell Death” value in data set [2] was determined as 53%.

For `CO[C@H]1C(=O)[C@]2(C)[C@@H](OC)C[C@H]3OC[C@@]3(OC(C)=O)[C@H]2[C@H](OC(=O)c2ccccc2)[C@]2(O)C[C@H](OC(=O)[C@H](O)[C@@H](NC(=O)OC(C)(C)C)c3ccccc3)C(C)=C1C2(C)C` [Cabazitaxel], the “% Cell Death” value in data set [2] amounted to 37%.

Turning to `Cn1nnc2c(C(N)=O)ncn2c1=O` [Temozolomide], the “% Cell Death” value in data set [2] was found to be 40%.

Take `CC[C@]1(O)C[C@@H]2CN(CCc3c([nH]c4ccccc34)[C@@](C(=O)OC)(c3cc4c(cc3OC)N(C)[C@H]3[C@@](O)(C(=O)OC)[C@H](OC(C)=O)[C@]5(CC)C=CCN6CC[C@]43[C@@H]65)C2)C1` [Vinblastine]: the “% Cell Death” value in data set [2] amounted to 38%.

For the compound `C=C(C)[C@@H]1CCC(C)=C[C@H]1c1c(O)cc(CCCCC)cc1O` [CBD, cannabidiol], the organoid response entry in data set [2] (organoid of the chemoresistant endometrial cancer patient) is recorded as “significant response”. For the same compound, the “effect on peak plasma concentrations of CBD” value in data set [3] (coadministration of rifampicin (a CYP3A4 inducer)) is recorded as “significantly reduced peak plasma concentrations”. Besides, the “effect on peak plasma drug concentrations” value in data set [3] (coadministration of the CYP3A4 inhibitor ketoconazole) is given as “nearly doubled peak plasma drug concentrations”. Further, the “inhibition of P-glycoprotein-mediated drug transport” value in data set [4] was “significantly inhibits P-glycoprotein-mediated drug transport”. Besides, in data set [5], the “inhibition of CYP2C19” value was “potent inhibitor of CYP2C19 enzymes”.

Regarding `N.N.[Cl][Pt][Cl]` [Cisplatin], in data set [2], the “% Cell Death” value worked out at 36%.

For the compound `CCCCCc1cc(O)c2c(c1)OC(C)(C)[C@@H]1CCC(C)=C[C@@H]21` [THC, Δ-9-tetrahydrocannabinol], in data set [3] (oral THC formulations), the “onset to reach peak concentration” value is listed as ~120 min.

As for `CCC1=C[C@@H]2CN(C1)Cc1c([nH]c3ccccc13)[C@@](C(=O)OC)(c1cc3c(cc1OC)N(C)[C@H]1[C@@](O)(C(=O)OC)[C@H](OC(C)=O)[C@]4(CC)C=CCN5CC[C@]31[C@@H]54)C2` [Vinorelbine], the “% Cell Death” value in data set [2] was 45%.

On to `N[C@@H](Cc1ccc(N(CCCl)CCCl)cc1)C(=O)O` [Melphalan], for which the “% Cell Death” value in data set [2] turned out to be 40%.

With `N.N.O=C([O-])C1(C(=O)[O-])CCC1.[Pt+2]` [Carboplatin], the viability result in data set [6] was “about 50%”. Further, the “% Cell Death” value in data set [2] worked out at 30%.

For the compound `COc1cc2c(cc1O)CCN[C@]21CS[C@@H]2c3c(OC(C)=O)c(C)c4c(c3[C@H](COC1=O)N1[C@@H]2[C@H]2c3c(cc(C)c(OC)c3O)C[C@@H]([C@@H]1O)N2C)OCO4` [Trabectedine], the “% Cell Death” value in data set [2] was determined as 32%.

Regarding `CCc1c2c(nc3ccc(OC(=O)N4CCC(N5CCCCC5)CC4)cc13)-c1cc3c(c(=O)n1C2)COC(=O)[C@]3(O)CC` [Irinotecan], in data set [2], the “% Cell Death” value is 51%.

In the case of `CC(=O)O[C@H]1C(=O)[C@@]2(C)[C@H]([C@H](OC(=O)c3ccccc3)[C@]3(O)C[C@H](OC(=O)[C@H](O)[C@@H](NC(=O)c4ccccc4)c4ccccc4)C(C)=C1C3(C)C)[C@]1(OC(C)=O)CO[C@@H]1C[C@@H]2O` [Paclitaxel], the organoid viability entry in data set [1] (human, 14 days, 16 nm/mL) is reported as “around 60%”; in data set [1] (paclitaxel alone, 4 nm/mL), “virtually no impact on the organoid viability”. Further, in data set [7], the “effect on tumor volume” value was “in essence ineffective after an initial reduction at day 10”. Further, the “% Cell Death” value in data set [2] was found to be 39%.

As to `Nc1ccn([C@@H]2O[C@H](CO)[C@@H](O)C2(F)F)c(=O)n1` [Gemcitabine], the “% Cell Death” value in data set [2] was 56%.

`COc1cc([C@@H]2c3cc4c(cc3[C@@H](O[C@@H]3O[C@@H]5CO[C@@H](C)O[C@H]5[C@H](O)[C@H]3O)[C@H]3COC(=O)[C@H]23)OCO4)cc(OC)c1O` [Etoposide]: the “% Cell Death” value in data set [2] is listed as 33%.

As to 5-Fluorouaracil/Capecitabine, the “% Cell Death” value in data set [2] was 61%.

Regarding `O=C1c2c(O)ccc(O)c2C(=O)c2c(NCCNCCO)ccc(NCCNCCO)c21` [Mitoxantrone], the “% Cell Death” value in data set [2] was found to be 50%.

Consider `CN(C)/N=N/c1[nH]cnc1C(N)=O` [Dacarbazine], for which the “% Cell Death” value in data set [2] was found to be 32%.

For `COc1cccc2c1C(=O)c1c(O)c3c(c(O)c1C2=O)C[C@@](O)(C(=O)CO)C[C@@H]3O[C@H]1C[C@H](N)[C@H](O)[C@H](C)O1` [Doxorubicin], the “% Cell Death” value in data set [2] worked out at 39%.

As to `C=C(C)[C@@H]1CCC(C)=C[C@H]1c1c(O)cc(CCCCC)cc1O` [CBD isolate, cannabidiol], the “percent viability of head and neck cancer organoids” value in data set [1] (10 μg/mL cannabis extract) is “effective in reducing the viability of the head and neck cancer organoids significantly”.

`O=P1(N(CCCl)CCCl)NCCCO1` (stereo not drawn) [Cyclosphosphamide]: in data set [2], the “% Cell Death” value is given as 32%.
